pEC50: −log10 of the molar value. Where two headings read alike, the source gives them in different places. One block for each molecule: values may come before it.
Experiments:
[1] = Rx100 salt screening (solid formation, XRPD wet/dry, filterability, exposure to RH > 90%); conditions: for Filterability / Crystallinity / Polymorphic behavior: Rx100 salt formed with the named base; for Crystallinity / Polymorphic behavior: XRPD; for Solid upon evaporation (Y/N) / All solvents were evaporated to get a gel: stage 3, 1.05 eq, L-lysine 2.00 eq; for Solid upon evaporation (Y/N): 35 mg Rx100 free acid + base (label = base); for All solvents were evaporated to get a gel: label = base, nature/filterability of the solid; for ON PLATE / XRPD, wet: stage 2 round 2, Rx100 free acid + 1 eq base (label = base)
Method: We designed a complex and unconventional screening regime to screen for Rx100 crystalline salts. […] The screening regime is described as follows.
Rx100.FA in the form of a viscous liquid and eighteen counter ions were used as starting materials. These counter ions are listed and numbered in Table 4. The numbers will be used for grouping the resulting solids. The screening was performed in three stages.
Stage one (1) included screening 11 counter ions: sodium hydroxide, ammonium hydroxide, ethylenediamine, diethylamine, tromethamine (Tris), hydroxyethyl morpholine, benzathine, dimethylamino ethanol, L-Arginine, L-Lysine, L-Histidine. […] In stage 1, we performed three rounds of experiment.
In the first round of experiment, four (4) solvent systems, i.e., isopropyl alcohol (IPA), diethyl ether (DEE), IPA:water (a mixture at a volume ratio of 95:5) and tetrahydrofuran (THF), were used. Thus in this first round of screening, 44 individual base-acid reactions were conducted in 44 vials.
First, Rx100.FA and each of the bases were mixed in a vial. […] In each of the 44 vials, 211.1 μL of the prepared liquid, which was equivalent to about 35 mg of Rx100.FA, was first dispensed. Then, one equivalent (molar) of each of the 11 bases was dispensed in its corresponding vial. For example, the base sodium hydroxide was added to vials 1, 12, 23 and 34. Similarly, L-histidine was added to vials 11, 22, 33 and 44. Observations were recorded upon addition of the bases in to Rx100.FA.
Second, the solvent in each mixture was depleted. All vials containing the mixtures of Rx100.FA and each of the bases were left under moderate vacuum and nitrogen bleed at room temperature overnight to evaporate the solvent. The vials were then kept under full vacuum for about an hour to make sure the solvents (ethanol and water) are evaporated. Observations on formation of solid upon evaporation were recorded.
Third, solvents were added in each vial to induce solid formation. In each vial, a stir bar and one of the four selected solvents (each 5 volumes with respect to the Rx100.FA) were added. The vials were then capped. IPA was added to the first set of 11 vials (1-11), DEE added to the second set of 11 vials (12-22), IPA:water added to the third set of 11 vials (23-33), and THF added to the fourth set of 11 vials (34-44). The vials were left at room temperature while stirring for at least 5 hours. Observations were recorded.
The first set of XRPD analyses were recorded as “wet” samples. The solids were dried under vacuum for 1 hour and at room temperature followed by XRPD as “dry” sample. The dry solid was then exposed to relative humidity of more than 90% overnight followed by XRPD analysis. For XRPD naming, a number and a letter were used. The number refers to the counter ion and the letter refers to the chronological discovered XRPD pattern of that particular salt.
In the second round of experiment of stage one, another four (4) solvent systems, i.e., methanol (MeOH), tert-Butyl methyl ether (tBME), ethyl acetate and toluene, were used in the same 44 vials as used in the first round experiment. The solvents in all 44 vials from the first round were evaporated to dryness under vacuum and nitrogen bleed. The 4 new solvents were then added into the vials. Methanol was added to the first set of 11 vials (1-11), tBME added to the second set of 11 vials (12-22), Ethyl acetate added to the third set of 11 vials (23-33), and Toluene added to the fourth set of 11 vials (34-44). The same procedure as in the first round of experiment was followed for these new solvents and samples were taken for XRPD analysis.
In the third round of experiment, effect of base equivalence was assessed. […] After addition of the extra base, the previous solvent was evaporated and new solvents added.

Beagle dogs = assay: Single-dose subcutaneous toxicity in dogs; assay type: in vivo; conditions: 1 mL/kg of a 6-mg/mL concentration of L-lysine; same animals
From the text: One group of one male and one female Beagle dogs received single escalating subcutaneous doses of Rx100.Lysine at 10 and 1 (female)/1.52 (male) mg/kg. […] Parameters evaluated included clinical signs, body weight, and gross pathology. The male and female dog survived until scheduled necropsy on Day 15. Administration of Rx100 had no effect on body weight or general health of the animals. Noteworthy clinical observations were confined to skin and behavior effects. Both animals scratched at the dose site, likely contributing to observations of redness at the dose site. Swelling and a thickened/raised area were also observed during the observation period. Clinical observations were sufficient to warrant the injection of diphenhydramine. […] Following injection of the L-lysine component of the formulation at an independent site, redness, scratching, or swelling was not seen.

[2] = Short term (24 hour) slurry tests, XRPD of wet and dried solids; assay type: physicochemical; conditions: 24 hour slurry; Water; one cell for 25° C. and 50° C.; starting form A
Method: Second, short term slurry tests were performed. Rx100.L-Lysine salt was slurried for a minimum of 24 hours in 15 different solvent systems at two different temperatures (25 and 50° C.) in an attempt to provide information for crystallization experiments and design of polymorph screening experiments. A 48 position Chemglass reaction block was used for heating and stirring the slurries which were in 2 mL HPLC vials. After the due time, vials were centrifuged and the wet solids were used for X-ray diffraction. […]

[3] = Characterization of scaled-up Rx100.L-Lysine salt (XRPD, DSC, TGA, 1H NMR, Karl Fischer, optical microscopy); assay type: physicochemical; conditions: scaled-up lot 1980-18-1
Method: The Rx100.L-Lysine salts were dried overnight under vacuum at 35° C. and then characterized by XRPD, DSC, TGA, ^1HNMR, Karl Fischer (KF), optical microscopy and moisture sorption assays.
Ratio of Rx-100 to L-Lysine in the salt was calculated based on the ^1HNMR integration ratio of set-A protons to set-B protons of the salt. Set-A protons are from Rx-100 part of the molecule and set-B protons are from L-Lysine part of the molecule. These two set of protons were selected because they are very well separated from rest of the protons in the ^1HNMR of the molecule. As shown in the molecular scheme in FIG. 39, set-A protons correspond to two olefinic protons of Rx100 and appear at […] in the ^1H NMR. In contrast, set-B protons correspond to methylene of lysine part and appear at […]. Comparison of ^1H NMR integration values for set-A and set-B protons indicates the ratio of Rx100 to lysine as 1:1.5.
The exhibition of birefringence observed by optical microscopy confirmed the crystallinity observed by XRPD

[4] = Gravimetric moisture sorption analysis, with XRPD afterwards; assay type: physicochemical; conditions: lot 1980-18-1; 95% RH; reversible
Method: Moisture sorption analysis of the Rx100.L-Lysine salt was performed by equilibrating the sample at 25° C. and 50% RH to simulate ambient lab conditions. Humidity then decreased to 0% RH, increased from 0 to 95% RH, reduced from 95 to 0% RH, increased from 0 to 95% RH and then decreased from 95 to 50% RH.

Human LPA1 = biological target: T1, Human LPA1 (Homo sapiens, UniProt Q92633); assay: Calcium-mobilization assay (FURA-2), human LPA1 transfected cells; assay type: cell-based; conditions: mean; for pEC50: read-out: EC50
T1 construct: expressed in transfected cells; host or cells: mouse embryonic fibroblasts (MEF)
T1 sequence (Q92633 whole entry): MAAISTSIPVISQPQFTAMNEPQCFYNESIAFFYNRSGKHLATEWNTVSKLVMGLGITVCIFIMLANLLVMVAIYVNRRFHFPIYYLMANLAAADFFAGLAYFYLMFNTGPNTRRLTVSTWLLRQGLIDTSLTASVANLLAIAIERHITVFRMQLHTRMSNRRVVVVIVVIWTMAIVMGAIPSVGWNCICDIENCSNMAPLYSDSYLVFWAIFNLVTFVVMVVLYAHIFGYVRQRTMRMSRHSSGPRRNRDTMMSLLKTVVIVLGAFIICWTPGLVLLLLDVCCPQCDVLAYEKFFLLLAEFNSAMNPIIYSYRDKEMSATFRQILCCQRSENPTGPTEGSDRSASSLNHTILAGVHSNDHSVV
Method: (§1) We investigated structure-activity relationships across species, LPAR subtypes and between Rx100 and two known process impurities encountered in manufacture: Rx103 (‘E’ isomer) and Rx200 (oleyl phosphate and impurity, which can be an Rx100 degradant along with oleyl alcohol). Rx100, Rx103, Rx200 and native LPA were investigated at different human LPAR subtypes. In addition, the activity of these compounds was evaluated at LPA2 receptors from the rhesus, rat and mouse species. Human LPA1/2/3 subtypes were transfected into mouse embryonic fibroblasts (MEF) or rat hepatoma cells (RH7777)—both of which are normally non-responsive or null to LPA. Human LPA4 was transfected into Chinese hamster ovary (CHO) cells and LPA5 into the B103 neuroblastoma cell line. […] The B103 rat neuroblastoma cell line is endogenously nonresponsive to LPA but expresses heterologous LPA5 receptors well. […] LPAR activation elicits a G-protein-mediated transient rise in intracellular calcium level that is proportional to the concentration of LPA applied. The intracellular calcium level was quantified by the calcium-selective fluorescent indicator FURA-2 (e.g., increased intracellular calcium surge=increased fluorescence).

[5] = biological target: T2, LPA2 receptors from the mouse (Mus musculus, UniProt Q9JL06); assay: Calcium-mobilization assay (FURA-2), mouse LPA2; assay type: cell-based; conditions: LPA2 DKO MEF, mouse, mean
T2 construct: expressed in transfected cells
T2 sequence (Q9JL06 whole entry): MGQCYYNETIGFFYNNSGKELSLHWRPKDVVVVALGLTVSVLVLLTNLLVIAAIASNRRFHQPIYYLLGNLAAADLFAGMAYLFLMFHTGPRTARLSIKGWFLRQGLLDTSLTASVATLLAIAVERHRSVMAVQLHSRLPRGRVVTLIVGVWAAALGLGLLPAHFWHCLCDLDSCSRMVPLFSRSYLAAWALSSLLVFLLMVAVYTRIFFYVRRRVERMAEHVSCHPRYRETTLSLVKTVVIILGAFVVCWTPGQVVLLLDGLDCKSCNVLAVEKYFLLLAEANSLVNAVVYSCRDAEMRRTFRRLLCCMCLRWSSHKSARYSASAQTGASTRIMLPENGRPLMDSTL
Method: as §1

Control CHO = assay: Calcium-mobilization assay, untransfected Control CHO cells; assay type: cell-based, Chinese hamster; conditions: Control CHO (untransfected; endogenously expresses LPA1)
Method: as §1

[6] = biological target: LPA2 receptors from the rat (Rattus norvegicus, UniProt A0ABK0LT65); assay: Calcium-mobilization assay (FURA-2), rat LPA2; assay type: cell-based; conditions: LPA2 DKO MEF, rat, mean
LPA2 receptors from the rat, sequence (A0ABK0LT65 1-348): as the sequence (Q9JL06 whole entry) above, with A153V, A189V, Y211F, M310T, S316H, R321H, A324S, Q327R, R341H counted along it
Method: as §1

[7] = biological target: LPA2 receptors from the rhesus (Macaca mulatta, UniProt I2CXV3); assay: Calcium-mobilization assay (FURA-2), rhesus LPA2; assay type: cell-based; conditions: LPA2 DKO MEF, rhesus, mean
LPA2 receptors from the rhesus, sequence (I2CXV3 1-351): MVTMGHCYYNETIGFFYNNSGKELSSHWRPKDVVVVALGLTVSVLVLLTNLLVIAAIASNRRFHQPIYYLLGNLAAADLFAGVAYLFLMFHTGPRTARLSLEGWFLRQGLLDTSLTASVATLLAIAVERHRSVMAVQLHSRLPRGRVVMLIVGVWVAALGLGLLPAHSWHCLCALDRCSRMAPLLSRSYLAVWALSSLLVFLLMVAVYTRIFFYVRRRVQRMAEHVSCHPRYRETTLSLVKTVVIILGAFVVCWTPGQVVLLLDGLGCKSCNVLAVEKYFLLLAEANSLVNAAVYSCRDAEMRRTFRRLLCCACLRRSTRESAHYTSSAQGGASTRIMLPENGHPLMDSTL
Method: as §1

Molecule: NCCCC[C@@H](N)C(=O)O [D-Lysine]
Filterability [1]: no
Crystallinity [1]: yes
Polymorphic behavior [1]: Polymorphic on XRPD
Solid upon evaporation (Y/N) [1]: Gel
All solvents were evaporated to get a gel ([1]; solvent MeOH:Water [9:1]): Greasy.
All solvents were evaporated to get a gel ([1]; solvent MeOH): Greasy.

Molecule: [K+].[OH-] [KOH]
ON PLATE ([1]; Ethyl acetate): Greasy
ON PLATE ([1]; IPA:water (1:1)): Pasty

Molecule: NCCCC[C@H](N)C(=O)O [L-lysine component, L-lysine]
tolerability of subcutaneous injection (Beagle dogs): well tolerated

Molecule: [K+] [Potassium]
Filterability [1]: no
Crystallinity [1]: yes
Polymorphic behavior [1]: Polymorphic on XRPD

Molecule: CCCCCCCC/C=C\CCCCCCCCOP(O)(O)=S.NCCN [Rx100 Ethylenediamine salt]
Stability at high humidity [1]: stable at high humidity
Filterability [1]: filterable
Crystallinity [1]: showed crystallinity
Polymorphic behavior [1]: Creamy/oily on XRPD
Crystallinity ([1]; listed as Ethyldiamine): yes
Filterability ([1]; listed as Ethyldiamine): yes

Molecule: CCCCCCCC/C=C\CCCCCCCCOP(O)(O)=S.NCCCC[C@H](N)C(=O)O [Rx100. L-Lysine Salt]
Resulting Form [2]: Dissolved

Molecule: CCCCCCCC/C=C\CCCCCCCCOP(O)(O)=S.NCCCC[C@H](N)C(=O)O [Rx100. L-Lysine salt]
KF [Wt % water] [3]: 1.8 Wt % water
Optical Microscopy [3]: Birefringent
TGA [% Wt. loss] [3]: 1.1 % Wt. loss
XRPD [Form] [3]: Crystalline
Moisture Sorption [Wt. % at 95% RH] [4]: 20.6 Wt. %

Molecule: CCCCCCCC/C=C\CCCCCCCCOP([O-])(O)=S.[Na+] [Sodium]
Filterability [1]: no
Crystallinity [1]: yes
Polymorphic behavior [1]: Polymorphic on XRPD

Molecule: NC(CO)(CO)CO [Tromethamine]
Filterability [1]: no
Crystallinity [1]: no
Polymorphic behavior [1]: Oily on XRPD
RH > 90% overnight (XRPD pattern or state after exposure) ([1]; stage 1, third round, 2.1 eq of base, listed as 4-16): 5-A + Tris

Molecule: Ca(OH)2
XRPD, wet ([1]; Ethyl acetate): Calcium
XRPD, wet ([1]; IPA:water (1:1)): Calcium

Molecule: L-Arginine
Filterability [1]: yes*
Crystallinity [1]: yes
Polymorphic behavior [1]: Greasy on XRPD

Filterability [1]: yes
Crystallinity [1]: yes
Polymorphic behavior [1]: Multiple patterns on XRPD
Solid upon evaporation (Y/N) [1]: Gel
All solvents were evaporated to get a gel ([1]; solvent MeOH:Water [9:1]): Greasy.
All solvents were evaporated to get a gel ([1]; solvent MeOH): Greasy.
Molecule: Piperazine

Emax (% of LPA) (Human LPA1; LPA1 DKO MEF, human): 100 % of LPA
pEC50 (Human LPA1; LPA1 DKO MEF, human): 6.45
Emax (% of LPA) (Human LPA1; LPA1 RH7777, human): 100 % of LPA
pEC50 (Human LPA1; LPA1 RH7777, human): 7.55
Emax (% of LPA) [5]: 100 % of LPA
pEC50 ([5]; read-out: EC50): 8.36
Emax (% of LPA) [6]: 100 % of LPA
pEC50 ([6]; read-out: EC50): 8.77
Emax (% of LPA) [7]: 100 % of LPA
pEC50 ([7]; read-out: EC50): 8.89
Molecule: lysophosphatidic acid [LPA, reference compound]
Emax (% of LPA) (Control CHO): 12%
pEC50 (Control CHO; read-out: EC50): 6.22
